Measurements: patent US9138659B2, “Compositions, methods, and systems relating to controlled crystallization and/or nucleation of molecular species” (Massachusetts Institute of Technology, priority 2010, dated 2015)

How the values were obtained:
Assay type in all cases: physicochemical
[1] = Nucleation induction time of aspirin on nanopatterned AA-co-DVB polymer films from butyl acetate; details: for Nucleation induction time τ: aspirin, butyl acetate
Source text: The effect of nanopatterned polymer films on the kinetics of nucleation from solution was quantified by measuring the nucleation induction time of aspirin, a representative small organic molecule. The polymer film was made from acrylic acid crosslinked with divinylbenzene (AA-co-DVB), with which aspirin could interact via hydrogen bonding. Polymer crosslinking was designed to avoid solvent uptake and to maintain the surface morphology when in contact with the solution. Due to the stochastic nature of nucleation events, 20 to 50 samples were tested simultaneously to obtain the probability distribution for the nucleation induction time. The average induction time, τ, was determined from a statistical analysis on the induction time data assuming that nucleation follows a Poisson distribution, P(t)=exp(−t/τ). The nucleation rate, J, was calculated from τ via J=1/τV, where V is the volume of solution, with the assumption that the time scale of nucleation is much longer than that of crystal growth, valid for this system.
In FIG. 14: Effect of the nanopore shape in AA-co-DVB polymer films on the nucleation kinetics of aspirin: flat vs. spherical pores (left); spherical pores vs. hexagonal pores and square pores of the same size (right). J is the nucleation rate, in number of nuclei per ml of solution per hour, calculated from the average nucleation induction time τ by J=1/τV, where V is the volume of solution. The standard errors of J were calculated from the regression on the induction time probability distribution following the Poisson distribution.
Nucleation Induction Time Measurement: Once synthesized, the polymer film with its substrate was inserted vertically into a 1 ml glass shell vial containing 200 μl 47 mg/ml aspirin solution in butyl acetate. For each polymer sample, 20-50 vials were assembled and immersed in a circulator stabilized at 50±0.1° C. to dissolve any pre-existing crystals, and then the solution was quench cooled to 5±0.1° C. by immersing into a second circulator. The number of vials in which crystallization occurred was recorded as a function of time. All the operations involving exposing polymer films, aspirin solutions and shell vials to the atmosphere were conducted inside a Bio Safety Cabinet to reduce impurity contamination to the lowest level. Efforts were made to clean all components before usage and aspirin solutions were filtered with an Acrodisc 0.2 μm PTFE syringe filter.

[2] = Nucleation induction time of ASA / ACM with PEGDA or PEGDA-co-AM microgels in 38/62 ethanol/water; details: for Average nucleation induction time τ (stretched exponential fit): ASA S=2.1; for τ1 (two-exponential fit) / τ2 (two-exponential fit): ASA; for optimum mesh size for inducing ASA nucleation: PEGDA particles
Source text: Nucleation kinetics of model compounds was investigated by measuring the nucleation induction time probability distribution. Nucleation induction time is generally time elapsed prior to the formation of a detectable amount of the new crystalline phase. It is a useful indicator of the surface nucleation activity because it can be dramatically shortened when the presence of an interface lowers the free energy barrier of nucleation. Due to the stochastic nature of nucleation events, a large number of experiments were performed to obtain the probability distribution of nucleation induction time. To obtain the average induction time τ, statistical analysis on the induction time data was conducted based on the understanding that nucleation follows a Poisson distribution. According to Poisson statistics, the probability for a nucleation event to occur beyond time t is P=exp(−t/τ), which implies that the fraction of vials without nucleation at time t exponentially decays as a function of time, where the scaling factor for time is the average induction time.
For determining the statistical analysis of aspirin nucleation induction time with PEGDA particles of various mesh sizes (particles denoted by Mn), 1.9 mL of 38 mg/ml ASA solution in 38/62 ethanol/water (v/v) with 15 μg/mL PEGDA particles was cooled at a rate of 5° C./min from 35° C. to 15° C. to achieve a supersaturation of 2.1. The solution was stirred at 700 rpm. The onset of nucleation was detected by an IR probe which measures the transmission signal through the solution. A total of 10 vials were cycled for 5-10 times to yield 50-100 nucleation induction time measurements for the statistical analysis.
The nucleation rate, J, is given by J=1/τV, where τ the average induction time (Table 1) and V the volume of solution. For this equation to be valid, the assumption is that the crystal growth rate is much faster than the nucleation rate, which is the case for ASA. […] Other crystallization conditions were kept the same.
[…] The solution was stirred at 700 rpm. The onset of nucleation was detected by an IR probe which measures the transmission signal through the solution. A total of 10 vials were cycled for 5-10 times to yield 50-100 nucleation induction time data for the statistical analysis.
Effect of polymer gels on nucleation induction time statistics: To evaluate the impact of polymer-solute interactions on nucleation kinetics, induction times of ASA and ACM were measured with microgels of a series average mesh sizes before and after chemical modification suspended in respective supersaturated solutions. […] For each system, a large number of experiments (50-100) were conducted to obtain the induction time probability distribution. The nucleation induction time generally follows the Poisson distribution. However, deviations can occur, as observed in this study, when there is more than one type of nucleation sites in a sample, giving rise to multiple Poisson processes with different characteristic time scales.
For samples with PEGMDA microgels, the nucleation induction time distributions reported in previous work can be faithfully described by stretched exponentials (Tables 5 and 6), P=exp[−(t/τ)^β], where P is the probability to observe no crystallization event within time t, τ the average induction time. The stretched exponential exponent β served as a measure for the spread of time scales characterizing the nucleation process, or the distribution of kinetic barriers arisen from the heterogeneity of the system. Such heterogeneity can be attributed to the heterogeneity of the polymer microstructure identified using SANS, which resulted from a distribution of nucleation sites arising from spatial variations in both the mesh size and chemical composition of the hydrogel at nanometer length scales. Note that β varies with the average mesh size of the microgel. […]

[3] = Isothermal titration calorimetry of ASA adsorption onto microgels; details: 38/62 ethanol/water, 23° C
Description: The ASA-polymer interactions were further quantified with the solute adsorption enthalpy via Isothermal Titration calorimetry (ITC), which also helps to deepen the understanding of partitioning effect. […] The data are presented both as instantaneous enthalpies at a given concentration, ΔHASA-gel (top), and as cumulative enthalpies up to a certain concentration, ΔHASA-gel ^tot (bottom).
Isothermal titration calorimetry (ITC): ITC measurements were performed on a TA Instruments NanoITC calorimeter. All experiments were performed at 23° C. using injections of ΔV=10 μL of titrant, with a waiting time of 1000 sec in between injections and 25 injections per measurement. For all measurements, The differential heat input, q(t), was measured as a function of time t over all injections, followed by integration of q(t) over each individual injection to obtain the molar heat of injection, Q(T,P,c). The molar heat of injection can then be cumulatively added over all previous injections, yielding the total molar heat, Qtot(T,P,c). […]
where ΔHASA-gel is the molar enthalpy of interaction between ASA and the microgel particles, and ΔHdil^i is the molar enthalpy of dilution of component i (ASA or gel, respectively) in 38/62 (v/v) ethanol/water. […] (X) was used to subtract the measured dilution enthalpies from the initial measurements of Q(T,P,c) in order to obtain ΔHASA-gel. […]

[4] = PEGDA-co-AM microgels M 130 g/mol
[5] = PEGDA-co-AM microgels M 200 g/mol
[6] = PEGDA-co-AM microgels M 400 g/mol
[7] = PEGDA-co-AM microgels M 575 g/mol
[8] = PEGDA-co-AM microgels M 700 g/mol

## CC(=O)Oc1ccccc1C(=O)O [aspirin]
[1]; AA-co-DVB film with hexagonal pores
  enhancement of aspirin nucleation rate relative to spherical pores: more than an order of magnitude
[1]; AA-co-DVB film with square pores
  enhancement of aspirin nucleation rate relative to spherical pores: three-fold
[1]; AA-co-DVB film with hexagonal nanopores, 15 nm
  Nucleation induction time τ: 26 ± 7 min
[1]; AA-co-DVB film with square nanopores, 125 nm
  Nucleation induction time τ: 138 ± 12 min
[2]; ASA S = 2.1, Bulk (no particles), 38/62 ethanol/water
  average nucleation induction time τ: ∞
[2]; ASA S = 2.1, PEGDA microparticles Mn 130 g/mol, 38/62 ethanol/water
  average nucleation induction time τ: ∞
[2]; ASA S = 2.1, PEGDA microparticles Mn 200 g/mol, 38/62 ethanol/water
  average nucleation induction time τ: 910 ± 40 min
[2]; ASA S = 2.1, PEGDA microparticles Mn 400 g/mol, 38/62 ethanol/water
  average nucleation induction time τ: 60 min
[2]; ASA S = 2.1, PEGDA microparticles Mn 400 g/mol, 38/62 ethanol/water, listed as ASA
  average nucleation induction time τ: 63 ± 3 min
[2]; ASA S = 2.1, PEGDA microparticles Mn 575 g/mol, 38/62 ethanol/water
  average nucleation induction time τ: 1900 ± 100 min
[2]; ASA S = 2.1, PEGDA microparticles Mn 700 g/mol, 38/62 ethanol/water
  average nucleation induction time τ: 6600 ± 1100 min
[2]; ASA S = 3.3, Bulk (no particles), 38/62 ethanol/water
  average nucleation induction time τ: 2500 ± 600 min
[2]; ASA S = 3.3, PEGDA microparticles Mn 130 g/mol
  average nucleation induction time τ: 330 ± 60 min
[2]; ASA S = 3.3, PEGDA microparticles Mn 200 g/mol
  average nucleation induction time τ: 52 ± 3 min
[2]; ASA S = 3.3, PEGDA microparticles Mn 400 g/mol
  average nucleation induction time τ: 123 ± 7 min
[2]; ASA S = 3.3, PEGDA microparticles Mn 700 g/mol
  average nucleation induction time τ: 240 ± 20 min
[2]; Bulk / PEGDA microgels M 130 g/mol
  Average nucleation induction time τ (stretched exponential fit): Not detectable
[2]; PEGDA microgels M 200 g/mol
  Average nucleation induction time τ (stretched exponential fit): 1052 min
[2]; PEGDA microgels M 400 g/mol
  Average nucleation induction time τ (stretched exponential fit): 66.7 min
[2]; PEGDA microgels M 575 g/mol
  Average nucleation induction time τ (stretched exponential fit): 3500 min
[2]; PEGDA microgels M 700 g/mol
  Average nucleation induction time τ (stretched exponential fit): 210000 min
[2]; [4]
  τ1 (two-exponential fit): 170 min
  τ2 (two-exponential fit): 4900 min
[2]; [5]
  τ1 (two-exponential fit): 21 min
  τ2 (two-exponential fit): 99 min
[2]; [6]
  τ1 (two-exponential fit): 39 min
  τ2 (two-exponential fit): 400 min
[2]; [7]
  τ1 (two-exponential fit): 51 min
  τ2 (two-exponential fit): 470 min
[2]; [8]
  τ1 (two-exponential fit): 33 min
  τ2 (two-exponential fit): 720 min
[2]; 8° C, higher supersaturation (3.4)
  optimum mesh size for inducing ASA nucleation: 10 Å
[2]; 15° C, supersaturation 2.1
  optimum mesh size for inducing ASA nucleation: approximately 15 Å
[2]; PEGDA-co-AM vs PEGDA microgels
  promotion of nucleation kinetics when AM co-monomer was introduced into the PEGDA matrix: up to four orders of magnitude
[2]; vs bulk, Table 2
  best enhancement in nucleation kinetics by addition of PEGDA particles: many orders of magnitudes
[3]; PEG400DA microgels
  enthalpy of adsorption of ASA at infinite dilution ΔHASA-gel^∞: -41 kJ/mol
[3]; PEG400DA-co-AM microgels
  enthalpy of adsorption of ASA at infinite dilution ΔHASA-gel^∞: -51.5 kJ/mol
